T/C data for 13 molecules are collected here from PubChem BioAssay AID180 (DTP/NCI, 2004).

The subject of this assay is BDF1 mice, Adenocarcinoma 755 s.c., tumor weight T/C. Put plainly: NCI In Vivo Anticancer Drug Screen. Data for tumor model Adenocarcinoma 755 (subcutaneous) in B6D2F1 (BDF1) mice. The settings on record: endpoint: mean tumor weight, higher = larger tumour. Summed up: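 Readout: T/C, i.e. treated-group measurement over vehicle-control measurement. Endpoint is survival or tumor size in tumor-bearing mice given compound.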

The mark [1] stands for this setting: dose: 25.0 mg/kg/injection, schedule: Q01DX011 (ip), vehicle: carboxymethylcellulose (CMC).
The mark [2] stands for this setting: dose: 50.0 mg/kg/injection, schedule: Q01DX011 (ip), vehicle: carboxymethylcellulose (CMC).
The mark [3] stands for this setting: dose: 15.0 mg/kg/injection, schedule: Q01DX011 (ip), vehicle: carboxymethylcellulose (CMC).
The mark [4] stands for this setting: dose: 225.0 mg/kg/injection, schedule: Q01DX011 (ip), vehicle: methylcellulose (MC).
The mark [5] stands for this setting: dose: 12.0 mg/kg/injection, schedule: Q01DX011 (ip), vehicle: other.
Where [6] appears, read: dose: 15.0 mg/kg/injection, schedule: Q01DX011 (ip), vehicle: methylcellulose (MC).

“And” between values parts separate entries of the source, which are not always exact repeats. Identical values can stand only once.

With `CNC(=O)Cc1ccccc1`, the T/C runs as follows: (dose: 125.0 mg/kg/injection, schedule: Q01DX011 (ip), vehicle: water) 70 % of control; (dose: 250.0 mg/kg/injection, schedule: Q01DX011 (ip), vehicle: water) 63 % of control; (dose: 500.0 mg/kg/injection, schedule: Q01DX011 (ip), vehicle: water) 30 % of control.
Take `COS(C)(=O)=O`: the T/C is 113 % of control under setting [1] and 88 % of control under setting [2].
On to `Cc1cc(O)c(C(C)C)cc1S(=O)(=O)O` (tested in a mixture with another compound), for which the T/C was 78 % of control under setting [1]; 32 % of control (dose: 25.0 mg/kg/injection, schedule: Q01DX011 (ip), vehicle: other); 53 % of control under setting [2]; 83 % of control (dose: 50.0 mg/kg/injection, schedule: Q01DX011 (ip), vehicle: other); 49 % of control (dose: 100.0 mg/kg/injection, schedule: Q01DX011 (ip), vehicle: carboxymethylcellulose (CMC)); 44 % of control (dose: 100.0 mg/kg/injection, schedule: Q01DX011 (ip), vehicle: other). Moreover, the T/C reads like this: (dose: 200.0 mg/kg/injection, schedule: Q01DX011 (ip), vehicle: carboxymethylcellulose (CMC)) 42 % of control; (dose: 200.0 mg/kg/injection, schedule: Q01DX011 (ip), vehicle: other) 7 % of control.
Consider `O=C1C(=O)C(Cl)=C(Cl)C(Cl)=C1Cl`, for which the T/C is, setting by setting: (dose: 7.5 mg/kg/injection, schedule: Q01DX011 (ip), vehicle: carboxymethylcellulose (CMC)) 78 % of control; under setting [3], 90 % of control; (dose: 60.0 mg/kg/injection, schedule: Q01DX011 (ip), vehicle: carboxymethylcellulose (CMC)) 97 % of control.
Consider `CCCCSc1ncnc2nc[nH]c12`, for which the T/C is 119 % of control (dose: 0.25 mg/kg/injection, schedule: Q01DX011 (ip), vehicle: carboxymethylcellulose (CMC)); 121 % of control (dose: 1.0 mg/kg/injection, schedule: Q01DX011 (ip), vehicle: carboxymethylcellulose (CMC)); 62 % of control (dose: 4.0 mg/kg/injection, schedule: Q01DX011 (ip), vehicle: carboxymethylcellulose (CMC)); 4 % of control and 9 % of control under setting [3]; 4 % of control (dose: 62.0 mg/kg/injection, schedule: Q01DX011 (ip), vehicle: carboxymethylcellulose (CMC)).
In the case of `CS(=O)(=O)OCCC(=O)NCCCCCCNC(=O)CCOS(C)(=O)=O`, the T/C is 117 % of control (dose: 57.0 mg/kg/injection, schedule: Q01DX011 (ip), vehicle: methylcellulose (MC)); 110 % of control (dose: 113.0 mg/kg/injection, schedule: Q01DX011 (ip), vehicle: methylcellulose (MC)); 45 % of control under setting [4].
Regarding `CCN(CC)c1ccc2cc3ccc(=[N+](CC)CC)cc-3oc2c1`, the T/C by setting is: (dose: 0.64 mg/kg/injection, schedule: Q01DX011 (ip), vehicle: carboxymethylcellulose (CMC)) 33 % of control; (dose: 0.66 mg/kg/injection, schedule: Q01DX011 (ip), vehicle: carboxymethylcellulose (CMC)) 47 % of control; (dose: 1.27 mg/kg/injection, schedule: Q01DX011 (ip), vehicle: carboxymethylcellulose (CMC)) 119 % of control; (dose: 1.32 mg/kg/injection, schedule: Q01DX011 (ip), vehicle: carboxymethylcellulose (CMC)) 90 % of control; (dose: 1.7 mg/kg/injection, schedule: Q01DX011 (ip), vehicle: carboxymethylcellulose (CMC)) 91 % of control; (dose: 2.64 mg/kg/injection, schedule: Q01DX011 (ip), vehicle: carboxymethylcellulose (CMC)) 81 % of control. For the same molecule, the T/C (dose: 4.0 mg/kg/injection, schedule: Q01DX011 (ip), vehicle: other) was 115 % of control; the T/C (dose: 5.0 mg/kg/injection, schedule: Q01DX011 (ip), vehicle: methylcellulose (MC)) was 70 % of control; the T/C (dose: 5.1 mg/kg/injection, schedule: Q01DX011 (ip), vehicle: carboxymethylcellulose (CMC)) was 53 % of control; the T/C (dose: 5.28 mg/kg/injection, schedule: Q01DX011 (ip), vehicle: carboxymethylcellulose (CMC)) is 100 % of control; the T/C (dose: 8.0 mg/kg/injection, schedule: Q01DX011 (ip), vehicle: other) was 114 % of control; the T/C under setting [5] was 90 % of control. The T/C under setting [6] was 75 % of control.
As to `NC(CS)C(=O)O` (stereo unspecified) (tested in a mixture with another compound), the T/C (dose: 150.0 mg/kg/injection, schedule: Q01DX011 (ip), vehicle: methylcellulose (MC)) is 42 % of control; the T/C (dose: 150.0 mg/kg/injection, schedule: Q01DX011 (ip), vehicle: saline) was 56 % of control and 61 % of control; the T/C under setting [4] was 31 % of control; the T/C (dose: 225.0 mg/kg/injection, schedule: Q01DX011 (ip), vehicle: saline) was 18 % of control; the T/C (dose: 275.0 mg/kg/injection, schedule: Q01DX011 (ip), vehicle: saline) was 55 % of control; the T/C (dose: 350.0 mg/kg/injection, schedule: Q01DX011 (ip), vehicle: methylcellulose (MC)) is 18 % of control. Moreover, the T/C reads like this: (dose: 350.0 mg/kg/injection, schedule: Q01DX011 (ip), vehicle: saline) 35 % of control and 48 % of control; (dose: 500.0 mg/kg/injection, schedule: Q01DX011 (ip), vehicle: methylcellulose (MC)) 19 % of control.
Turning to `C[C@]12CC[C@@H]3c4ccc(O)cc4CC[C@H]3[C@@H]1CC[C@@H]2O`, the T/C reads like this: (dose: 125.0 mg/kg/injection, schedule: Q01DX011 (sc), vehicle: steriod suspending solution) 77 % of control; (dose: 250.0 mg/kg/injection, schedule: Q01DX011 (sc), vehicle: steriod suspending solution) 32 % of control; (dose: 500.0 mg/kg/injection, schedule: Q01DX011 (sc), vehicle: steriod suspending solution) 65 % of control; (dose: 1000.0 mg/kg/injection, schedule: Q01DX011 (sc), vehicle: steriod suspending solution) 42 % of control.
Consider `CCCn1cnc2c(=S)nc(N)[nH]c21`, for which the T/C is 103 % of control (dose: 0.03 mg/kg/injection, schedule: Q01DX011 (ip), vehicle: methylcellulose (MC)); 82 % of control (dose: 0.06 mg/kg/injection, schedule: Q01DX011 (ip), vehicle: methylcellulose (MC)); 45 % of control (dose: 0.11 mg/kg/injection, schedule: Q01DX011 (ip), vehicle: methylcellulose (MC)); 6 % of control and 7 % of control (dose: 0.22 mg/kg/injection, schedule: Q01DX011 (ip), vehicle: methylcellulose (MC)); 8 % of control (dose: 0.44 mg/kg/injection, schedule: Q01DX011 (ip), vehicle: methylcellulose (MC)); 4 % of control (dose: 0.88 mg/kg/injection, schedule: Q01DX011 (ip), vehicle: methylcellulose (MC)). The T/C (dose: 1.75 mg/kg/injection, schedule: Q01DX011 (ip), vehicle: methylcellulose (MC)) is 4 % of control.
For `Cc1cnc(SCc2ccccc2)[nH]c1=O`, the T/C reads like this: under setting [6], 103 % of control; (dose: 31.0 mg/kg/injection, schedule: Q01DX011 (ip), vehicle: methylcellulose (MC)) 104 % of control; (dose: 125.0 mg/kg/injection, schedule: Q01DX011 (ip), vehicle: methylcellulose (MC)) 92 % of control; (dose: 250.0 mg/kg/injection, schedule: Q01DX011 (ip), vehicle: methylcellulose (MC)) 77 % of control.
As for `O=C(O)c1[nH]c(=O)[nH]c(=O)c1F`, the T/C is, setting by setting: (dose: 1.5 mg/kg/injection, schedule: Q01DX011 (ip), vehicle: other) 53 % of control; (dose: 3.0 mg/kg/injection, schedule: Q01DX011 (ip), vehicle: other) 79 % of control; (dose: 6.0 mg/kg/injection, schedule: Q01DX011 (ip), vehicle: other) 37 % of control; under setting [5], 10 % of control.
Consider `O=C(OCC1OC(n2cnc3c(=S)nc[nH]c32)C(OC(=O)c2ccc(Cl)cc2)C1OC(=O)c1ccc(Cl)cc1)c1ccc(Cl)cc1` (stereo unspecified), for which the T/C was 85 % of control under setting [2]; 1 % of control and 5 % of control (dose: 400.0 mg/kg/injection, schedule: Q01DX011 (ip), vehicle: carboxymethylcellulose (CMC)).
